The species named for assay [1] is Cricetulus griseus. As to the kind of experiment: Concentration of the highest non-toxic dose tested; c = Compound was too insoluble to test. In kind it is functional.
The species entered for assay [2] is Cricetulus griseus. As to the kind of experiment: Sensitizer enhancement ratio was determined from the ratio of the doses required to reduce cell survival to 25% of the control value obtained from hypoxic survival curves in the presence and absence of test compound; c = Compound was too insoluble to test. In kind it is functional.
For assay [3], the species on record is Cricetulus griseus. As to the kind of experiment: Concentration of the highest non-toxic dose tested. In kind it is functional.
Assay [4] is described as follows: Sensitizer enhancement ratio was determined from the ratio of the doses required to reduce cell survival to 25% of the control value obtained from hypoxic survival curves in the presence and absence of test compound. In kind it is functional, Cricetulus griseus.

On to `O=C1C=C(Nc2ccccc2)C(=O)c2c1noc2-c1ccccc1`, for which, in assay [1], the Concentration entry is on record as “Too insoluble”. Further, the Ratio entry in assay [2] is given as “Too insoluble”.

For the compound `CCOc1onc2c1C(=O)/C(=N\c1ccccc1)C=C2O`, in assay [3], the Concentration is 0.03 mM. Further, in assay [4], the Ratio turned out to be 1.3.

As for `Cc1ccc(/N=C2/C=C(O)c3noc(NCCN(C)C)c3C2=O)cc1`, the Concentration in assay [3] was determined as 0.05 mM. For the same compound, the Ratio in assay [4] turned out to be 1.2.

`Cc1onc2c1C(=O)/C(=N\c1ccccc1)C=C2O`: the Concentration result in assay [1] is on record as “Too insoluble”. Moreover, the Ratio entry in assay [2] is on record as “Too insoluble”.

Consider `CN(C)CCCNc1onc2c1C(=O)/C(=N\c1ccc(C(F)(F)F)cc1)C=C2O`, for which the Concentration in assay [3] stood at 0.09 mM. In addition, the Ratio in assay [4] was found to be 1.3.

Turning to `O=C1C=C(Nc2ccc(F)cc2)C(=O)c2c1noc2NCCN1CCCCC1`, in assay [3], the Concentration came to 0.29 mM. Further, the Ratio in assay [4] amounted to 1.6.

Take `CN(C)CCN(C)c1onc2c1C(=O)/C(=N\c1ccccc1)C=C2O`: the Concentration in assay [3] worked out at 0.38 mM. Also, the Ratio in assay [4] worked out at 2.

`CN(C)CCCNc1onc2c1C(=O)/C(=N\c1ccc(Cl)cc1)C=C2O` returned a Concentration in assay [3] of 0.13 mM. The Ratio in assay [4] is listed as 1.7.

Regarding `CCOc1onc2c1C(=O)/C(=N\c1ccc(Cl)cc1)C=C2O`, the Concentration result in assay [1] is given as “Too insoluble”. In assay [2], the Ratio result was “Too insoluble”.

For the compound `CCOc1onc2c1C(=O)/C(=N\c1ccc(C)cc1)C=C2O`, in assay [1], the Concentration result is given as “Too insoluble”. The Ratio entry in assay [2] is given as “Too insoluble”.

`O=C1C=C(Nc2ccccc2)C(=O)c2c1noc2NCCN1CCCCC1`: the Concentration in assay [3] turned out to be 0.38 mM. Further, in assay [4], the Ratio is reported as 2.4.

As to `CN(C)CCCN(C)c1onc2c1C(=O)/C(=N\c1ccccc1)C=C2O`, in assay [3], the Concentration came out at 0.38 mM. In addition, the Ratio in assay [4] is reported as 1.5.

The compound `O=C1C=C(Nc2ccc(Cl)cc2)C(=O)c2c1noc2NCCN1CCCCC1` came in with a Concentration in assay [3] of 0.19 mM. The Ratio in assay [4] is on record as 1.9.

Turning to `CCOc1onc2c1C(=O)/C(=N\c1ccc(F)cc1)C=C2O`, the Concentration result in assay [1] is listed as “Too insoluble”. Also, in assay [2], the Ratio entry is reported as “Too insoluble”.

With `CCN(CC)c1onc2c1C(=O)/C(=N\c1ccccc1)C=C2O`, in assay [1], the Concentration result is listed as “Too insoluble”. Besides, the Ratio entry in assay [2] was “Too insoluble”.

`CN(C)CCCNc1onc2c1C(=O)/C(=N\c1ccccc1)C=C2O` came in with a Concentration in assay [3] of 0.19 mM. The Ratio in assay [4] amounted to 1.7.

For the compound `CN(C)CCCNc1onc2c1C(=O)/C(=N\c1ccc(F)cc1)C=C2O`, in assay [3], the Concentration came to 0.38 mM. In addition, the Ratio in assay [4] stood at 1.4.

`CN(C)CCNc1onc2c1C(=O)/C(=N\c1ccccc1)C=C2O` displayed a Concentration in assay [3] of 0.19 mM. In addition, in assay [4], the Ratio is listed as 1.5.

For the compound `O=C1C=C(Nc2ccc(C(F)(F)F)cc2)C(=O)c2c1noc2NCCN1CCCCC1`, the Concentration in assay [3] amounted to 0.13 mM. For the same compound, the Ratio in assay [4] amounted to 1.6.

`CCOc1onc2c1C(=O)/C(=N\c1ccc(C(F)(F)F)cc1)C=C2O`: the Concentration entry in assay [1] was “Too insoluble”. For the same compound, the Ratio result in assay [2] is reported as “Too insoluble”.

`O=C1/C(=N\c2ccccc2)C=C(O)c2noc(N(CCO)CCO)c21` showed a Concentration in assay [3] of 1.5 mM. Also, the Ratio in assay [4] is 2.1.

`CCNc1onc2c1C(=O)/C(=N\c1ccccc1)C=C2O`: in assay [1], the Concentration result is “Too insoluble”. For the same compound, the Ratio result in assay [2] is recorded as “Too insoluble”.

The record behind these values is ChEMBL document CHEMBL1125817, “Synthesis and evaluation of a series of 3,5-disubstituted benzisoxazole-4,7-diones. Potent radiosensitizers in vitro” (1991).
